Measurements from US20260062426A1, “CYCLIN DEPENDENT KINASE DEGRADERS AND METHODS OF USE THEREOF” (Differentiated Therapeutics Inc, priority 2023, published 2026).

Assays:
Type in all cases: cell-based
[1] = target: T1, CDK2 (Homo sapiens, UniProt P24941); test: CDK2 HIBIT PQ (protein quantification), degradation; settings: for CDK2 HIBIT PQ Max (%): Max = Maximum; for DC50: PQ = Protein Quantification
T1 construct: host or cells: HEK293
In short: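 After overnight incubation at 37° C and 5% CO2 in 384-well plates (1.6×10^5 cells/well, 50 uL, DMEM with 10% FBS), HEK293 cells with HiBiT-tagged CDK2 were treated with compound for 6 hours. Detection used 20 μL of Nano-Glo HiBiT lytic reagent with LgBiT protein, 20 minutes of shaking at room temperature and an EnVision reading, with 0.1% DMSO as high control and medium alone as low control. These readings were the basis for DC50 and maximal degradation.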

[2] = target: T2, CDK9 (Homo sapiens, UniProt P50750); test: CDK9 HIBIT PQ (protein quantification), degradation; settings: for Dmax: Max = Maximum; for DC50: PQ = Protein Quantification
T2 construct: host or cells: HEK293
In short: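 CDK9 protein was read by HiBiT assay in treated HEK293 cells carrying HiBiT-tagged CDK9, seeded at 1.6×10^5 cells/well in 50 uL in 384-well plates and incubated overnight at 37° C and 5% CO2. Controls were 0.1% DMSO-treated cells (high) and culture medium only (low). Maximal degradation, Dmax and DC50 were calculated from these readings.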

[3] = target: T3, CCNE1 (Homo sapiens, UniProt P24864+P24941); test: CCNE1 HIBIT PQ (protein quantification), degradation; settings: for CCNE1 HIBIT PQ Max (%): Max = Maximum; for DC50: PQ = Protein Quantification
T3 construct: host or cells: HEK293
In short: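 HEK293 cells with HiBiT-tagged CCNE1 were cultured in EMEM containing 10% FBS, plated at 1.6×10⁵ cells/well in 50 uL in 384-well plates and left overnight at 37° C with 5% CO₂. After 6 hours of compound exposure, a HiBiT assay measured CCNE1 protein, with 0.1% DMSO-treated cells as the high control and medium alone as the low control. DC50 and maximal degradation came from these readings.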

T2 sequence (P50750 whole entry): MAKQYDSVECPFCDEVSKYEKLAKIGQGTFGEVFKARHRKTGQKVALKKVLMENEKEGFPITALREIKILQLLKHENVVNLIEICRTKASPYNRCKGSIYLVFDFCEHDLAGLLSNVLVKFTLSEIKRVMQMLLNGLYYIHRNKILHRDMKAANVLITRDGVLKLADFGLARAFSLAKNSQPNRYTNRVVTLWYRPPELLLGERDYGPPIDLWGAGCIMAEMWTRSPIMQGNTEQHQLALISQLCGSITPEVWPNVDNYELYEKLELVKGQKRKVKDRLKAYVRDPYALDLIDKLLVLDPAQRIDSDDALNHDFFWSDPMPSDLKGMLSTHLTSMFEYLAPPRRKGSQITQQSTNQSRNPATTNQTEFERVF

Compound | CDK2 HIBIT PQ Max (%) [1] [%] | DC50 [1] [nM] | Dmax [2] [%] | DC50 [2] [nM] | CCNE1 HIBIT PQ Max (%) [3] [%] | DC50 [3] [nM]
CC(C)Oc1c(-c2cn[nH]c2)ncn2nc(N[C@H]3CCN(S(=O)(=O)c4cccc(CN5CCC(c6ccc7c(N8CCC(=O)NC8=O)nn(C)c7c6)CC5)c4)C[C@H]3C)nc12 [Compound 5] | 92 | 1.67 | 104 | 3.91 | 94 | 3.16
CC(C)Oc1c(-c2cn[nH]c2)ncn2nc(N[C@H]3CCN(S(=O)(=O)N(C)CCCN4CCC(c5cccc6c5n(C)c(=O)n6C5CCC(=O)NC5=O)CC4)C[C@H]3C)nc12 (stereo partly drawn) [Compound 7] | 92 | 1.07 | 91 | 2.13 | 96 | 0.76
CC(C)Oc1c(-c2cn[nH]c2)ncn2nc(Nc3ccc(S(=O)(=O)c4cccc(CN5CCC(c6ccc7c(N8CCC(=O)NC8=O)nn(C)c7c6)CC5)c4)cc3F)nc12 [Compound 8, 1-(6-(1-(3-((3-fluoro-4-((8-isopropoxy-7-(1H-pyrazol-4-yl)-[1,2,4]triazolo[1,5-c]pyrimidin-2-yl)amino)phenyl)sulfonyl)benzyl)piperidin-4-yl)-1-methyl-1H-indazol-3-yl)dihydropyrimidine-2,4(1H,3H)-dione] | 92 | 1.58 | 91 | 10.2 | 81 | 7.36
CC(C)Oc1c(-c2cn[nH]c2)ncn2nc(Nc3ccc(S(=O)(=O)N(C)CCCN4CCC(c5ccc6c(N7CCC(=O)NC7=O)nn(C)c6c5)CC4)cc3F)nc12 [Compound 15] | 95 | 0.35 | 99 | 1.37 | 93 | 0.72
CC(C)Oc1c(-c2cn[nH]c2)ncn2nc(Nc3ccc(S(=O)(=O)N(C)CCCN4CCC(c5cccc6c(N7CCC(=O)NC7=O)nn(C)c56)CC4)cc3F)nc12 [Compound 24] | 94 | 0.6 | 14 | – | 88 | 3.14
CC(C)Oc1c(-c2cn[nH]c2)ncn2nc(Nc3ccc(S(=O)(=O)c4cccc(CN5CCC(c6cccc7c(N8CCC(=O)NC8=O)nn(C)c67)CC5)c4)cc3F)nc12 [Compound 26] | 84 | 3.8 | 13 | – | 51 | 2.4
CC(C)Oc1c(-c2cn[nH]c2)ncn2nc(Nc3ccc(S(=O)(=O)N4CC5(CCCN(CCOc6cccc7c6n(C)c(=O)n7C6CCC(=O)NC6=O)C5)C4)cc3F)nc12 (stereo not drawn) [Compound 27] | 66 | 6.3 | 6 | – | 10 | –
CC(C)Oc1c(-c2cn[nH]c2)ncn2nc(Nc3ccc(S(=O)(=O)c4cccc(C[C@H]5C[C@@H](c6ccc7c(c6)CN(C6CCC(=O)NC6=O)C7=O)C5)c4)cc3F)nc12 (stereo partly drawn) [Compound 29, 3-{1-oxo-5-[(1s,3s)-3-{[3-(3-fluoro-4-{[8-isopropoxy-7-(1H-pyrazol-4-yl)-[1,2,4]triazolo[1,5-c]pyrimidin-2-yl]amino}benzenesulfonyl)phenyl]methyl}cyclobutyl]-3H-isoindol-2-yl}piperidine-2,6-dione] | 94 | 8 | 12 | – | 78 | 18.7
CC(C)Oc1c(-c2cn[nH]c2)ncn2nc(Nc3ccc(S(=O)(=O)c4cccc(C[C@H]5C[C@H](c6ccc7c(c6)CN(C6CCC(=O)NC6=O)C7=O)C5)c4)cc3F)nc12 (stereo partly drawn) [Compound 30] | 96 | 7.2 | 54 | 147 | 79 | 29.5
CC(C)Oc1c(-c2cn[nH]c2)ncn2nc(Nc3ccc(S(=O)(=O)c4cccc(CC5CC(c6ccc7c(N8CCC(=O)NC8=O)nn(C)c7c6)C5)c4)cc3F)nc12 (stereo not drawn) [Compound 33, 1-(6-(3-(3-((3-fluoro-4-((8-isopropoxy-7-(1H-pyrazol-4-yl)-[1,2,4]triazolo[1,5-c]pyrimidin-2-yl)amino)phenyl)sulfonyl)benzyl)cyclobutyl)-1-methyl-1H-indazol-3-yl)dihydropyrimidine-2,4(1H,3H)-dione] | 91 | 19 | 9 | – | 47 | –
CC(C)Oc1c(-c2cn[nH]c2)ncn2nc(Nc3ccc(S(=O)(=O)c4cccc(N5CCC6C5CN6c5ccc6c(c5)CN(C5CCC(=O)NC5=O)C6=O)c4)cc3F)nc12 (stereo not drawn) [Compound 34, 3-(5-{2-[3-(3-fluoro-4-{[8-isopropoxy-7-(1H-pyrazol-4-yl)-[1,2,4]triazolo[1,5-c]pyrimidin-2-yl]amino}benzenesulfonyl)phenyl]-2,6-diazabicyclo[3.2.0]heptan-6-yl}-1-oxo-3H-isoindol-2-yl)piperidine-2,6-dione] | 86 | 5.6 | 31 | – | 62 | 14.1
CC(C)Oc1c(-c2cn[nH]c2)ncn2nc(Nc3ccc(S(=O)(=O)c4cccc(N5CCCC6C5CN6c5ccc6c(c5)CN(C5CCC(=O)NC5=O)C6=O)c4)cc3F)nc12 (stereo not drawn) [Compound 35] | 79 | 6.5 | 17 | – | 25 | –
CC(C)Oc1c(-c2cn[nH]c2)ncn2nc(Nc3ccc(S(=O)(=O)N4CCC5(CCN(C6CCN(c7ccc8c(c7)n(C)c(=O)n8C7CCC(=O)NC7=O)CC6)C5)C4)cc3F)nc12 (stereo not drawn) [Compound 36] | 89 | 2.9 | 87 | 57.6 | 63 | 22.1
CC(C)Oc1c(-c2cn[nH]c2)ncn2nc(Nc3ccc(S(=O)(=O)N4CCC5(CCCN5C5CCN(c6ccc7c(c6)n(C)c(=O)n7C6CCC(=O)NC6=O)CC5)C4)cc3F)nc12 (stereo not drawn) [Compound 37] | 84 | 2.9 | 51 | 43.7 | 30 | –
CC(C)Oc1c(-c2cn[nH]c2)ncn2nc(Nc3ccc(S(=O)(=O)c4cccc(CN5CCN(c6ccc7c(N8CCC(=O)NC8=O)nn(C)c7c6)CC5)c4)cc3F)nc12 [Compound 38] | 96 | 2.3 | 63 | 24 | 55 | 5.76
CC(C)Oc1c(-c2cn[nH]c2)ncn2nc(N[C@H]3CCN(S(=O)(=O)c4cccc(CN5CCN(c6ccc7c(N8CCC(=O)NC8=O)nn(C)c7c6)CC5)c4)C[C@H]3C)nc12 [Compound 40] | 96 | 3.6 | 103 | 16.7 | 89 | 8.91
CC(C)Oc1c(-c2cn[nH]c2)ncn2nc(Nc3ccc(S(=O)(=O)c4cccc(CN5CCN(c6ccc7c(N8CCC(=O)NC8=O)nn(C)c7c6)C6CC65)c4)cc3F)nc12 (stereo not drawn) [Compound 44] | 92 | 3.5 | 15 | – | 39 | –
CC(C)Oc1c(-c2cn[nH]c2)ncn2nc(Nc3ccc(S(=O)(=O)c4cccc(CN5C6CC5CN(c5ccc7c(N8CCC(=O)NC8=O)nn(C)c7c5)C6)c4)cc3F)nc12 [Compound 45] | 85 | 4.3 | -10 | – | 33 | –
CC(C)Oc1c(-c2cn[nH]c2)ncn2nc(Nc3ccc(S(=O)(=O)c4cccc(CN5C6CCC5CN(c5ccc7c(N8CCC(=O)NC8=O)nn(C)c7c5)C6)c4)cc3F)nc12 [Compound 46] | 95 | 3.6 | 71 | 92.1 | 48 | –
CC(C)Oc1c(-c2cn[nH]c2)ncn2nc(Nc3ccc(S(=O)(=O)c4cccc(CN5CCN(c6ccc7c(N8CCC(=O)NC8=O)nn(C)c7c6)CC5(C)C)c4)cc3F)nc12 [Compound 47] | 97 | 6.2 | 74 | 136 | 72 | 55
CC(C)Oc1c(-c2cn[nH]c2)ncn2nc(Nc3ccc(S(=O)(=O)c4cccc(CN5CC6CC5CN6c5ccc6c(N7CCC(=O)NC7=O)nn(C)c6c5)c4)cc3F)nc12 (stereo not drawn) [Compound 48] | 79 | 3.1 | 2 | – | 21 | –
CC(C)Oc1c(-c2cn[nH]c2)ncn2nc(N[C@H]3CCN(S(=O)(=O)c4cccc(CN5CCN(c6ccc7c(N8CCC(=O)NC8=O)nn(C)c7c6)C(C)C5)c4)C[C@H]3C)nc12 (stereo partly drawn) [Compound 49] | 98 | 2.2 | 104 | 11.6 | 96 | 9.43
CCC1CN(c2ccc3c(N4CCC(=O)NC4=O)nn(C)c3c2)CCN1Cc1cccc(S(=O)(=O)N2CC[C@H](Nc3nc4c(OC(C)C)c(-c5cn[nH]c5)ncn4n3)[C@H](C)C2)c1 (stereo partly drawn) [Compound 50] | 97 | 2.8 | 96 | 23.5 | 90 | 15.2
